Results as given in publication PMC7502707, “Characterization and validation of a preventative therapy for hypertrophic cardiomyopathy in a murine model of the disease” (Proceedings of the National Academy of Sciences of the …, 2020).

Columns and labels:
[1] = test system: myocytes isolated from wt and cTnI-G203S mice; experiment: Mitochondrial membrane potential (JC-1) in myocytes isolated from treated mice; type: in vivo, mouse
Description: Male mice expressing the human cTnI gene encoding the human disease-causing mutation cTnI-G203S were used for all studies. […] Male mice expressing the normal human cTnI gene were used as controls (wt). Ten-week-old mice were used for in vitro studies. For in vivo studies, 20- or 30-wk-old cTnI-G203S mice were treated with 10 μM AID-TAT or AID[S]-TAT via intraperitoneal injection, 3×/wk/5 wk. In vivo dose of AID-TAT or AID[S]-TAT (10 μM) was calculated based on blood volume, equating to ∼2 mg/kg total BW. Male animal models were used to eliminate potential differences in responses due to sex. Experiments were performed in a total of 21 wt (AID[S]-TAT), 6 wt (AID-TAT), 15 cTnI-G203S (AID[S]-TAT), and 26 cTnI-G203S (AID-TAT) mice. All animals were randomly assigned to treatment groups.
Fluorescence was measured on a Hamamatsu Orca ER digital camera attached to an inverted Nikon TE2000-U microscope. Fluorescent indicator 5,5′,6,6′-tetrachloro-1,1′,3,3′-tetraethylbenzimidazolylcarbocyanine iodide was used to measure Ψm in cardiac myocytes, as previously described (JC-1, Molecular Probes) ([61]). Autofluorescence was used to measure flavoprotein oxidation in cardiac myocytes based on previously described methods ([13], [29], [62]). Responses to drugs were reported as a percentage increase from the basal average.
Cells were incubated in calcium-free HBS (supplemented with 3 mM EGTA and 200 nM JC-1) for at least 3 h prior to measuring changes in m. Sodium cyanide (NaCN, 40 mM, mitochondrial electron transport blocker) was added at the end of each experiment to collapse m, confirming that the JC-1 signal was indicative of m.
Additionally, individual 580 nm and 535 nm wavelength signals were assessed in each experiment to determine whether the fluorescent indicator was accurately measuring m. Autofluorescence was used to measure flavoprotein oxidation in cardiac myocytes based on previously described methods (ex = 480 nm, em = 535 nm, interval = 1 min, exposure = 1.5 seconds) (4, 6, 7). Carbonyl cyanide-4-(trifluoromethoxy)phenylhydrazone (FCCP, 50 μM, mitochondrial electron transport chain uncoupler) was added at the end of each experiment to increase flavoprotein oxidation confirming signal was mitochondrial in origin. Ratiometric JC-1 or flavoprotein fluorescent signals were quantified by manually tracing myocytes and subtracting an equivalent background region
Responses to drugs were reported as a percentage increase from the basal average. […]

[2] = test system: cardiac L-type calcium channel (ICa-L); parameters: method as in PMID 19166857, PMID 24969422, PMID 24958783; conditions: wt myocytes; cited from earlier work
wt and cTnI-G203S mice = experiment: Toxicity parameters: terminal serum urea, creatinine, ALT, AST and body weight; type: in vivo, mouse
Description: Mice were treated with 10 μM AID(S)-TAT or AID-TAT 3×/wk/5 wk (equaling 15 doses). BW was recorded prior to administration of each peptide dose, and reported as a percentage of day 1 BW. A 5 to 10% reduction in BW directed increased monitoring as recommended by The Animal Ethics Committee of The University of Western Australia in accordance with the 2008 Guidelines to Promote the Wellbeing of Animals Used for Scientific Purposes ([65]). Following completion of treatment regimen, mice were anesthetized and terminal blood collected. Serum was extracted and used to measure kidney and liver toxicity as previously described ([66]). Detailed methods are provided in SI Appendix.
Echocardiographic measurement of left ventricular function were performed on mice under light methoxyflurane anesthesia using an i13L probe on a Vivid 7 Dimension ultrasound system (GE Healthcare, Little Chalfont, United Kingdom) as previously described (4, 7). Echocardiographic measurements were taken on M-mode in triplicate from separate mice at a sweep speed of 200 mm/s. Each n represents the average of quantitative measurements from wt or cTnI-G203S mice for each treatment group. Measurements of left ventricular end diastolic diameter (LVEDD), left ventricular end systolic diameter (LVESD), fractional shortening (FS), left ventricular posterior wall in diastole (LVDPW), left ventricular posterior wall in systole (LVSPW), interventricular septum in diastole (IVSD), interventricular septum in systole (IVSS) and end diastolic diameter (EDD) were made. FS was calculated by the formula [(LVEDD-LVESD)/EDD] x 100.
(§1) Cell size was determined as previously described (16). […]
(§2) To measure kidney toxicity, urea and creatinine concentration was assessed using QuantiChrom Urea and Creatinine assay kits respectively (BioAssay Systems, Hayward CA). To measure liver toxicity, alanine transaminase (ALT) and aspartate transaminase (AST) concentration was measured using Alanine Transaminase and Aspartate Transaminase assay kits respectively (BioAssay Systems, Hayward CA). […]

[3] = test system: myocytes isolated from wt and cTnI-G203S mice; experiment: Confocal imaging of F-actin (phalloidin) in myocytes from treated mice; type: in vivo, mouse; conditions: myocytes from cTnI-G203S mice treated 10 μM 3×/wk/5 wk, Pre HCM Rx
Description: Following completion of treatment regimens, myocytes were isolated and prepared for confocal imaging based on previously described methods ([29]). Detailed methods are provided in SI Appendix.
Echocardiographic measurement of left ventricular function were performed on mice under light methoxyflurane anesthesia using an i13L probe on a Vivid 7 Dimension ultrasound system (GE Healthcare, Little Chalfont, United Kingdom) as previously described (4, 7). Echocardiographic measurements were taken on M-mode in triplicate from separate mice at a sweep speed of 200 mm/s. Each n represents the average of quantitative measurements from wt or cTnI-G203S mice for each treatment group. […] FS was calculated by the formula [(LVEDD-LVESD)/EDD] x 100.
as §1, §2

[4] = terminal serum, 10 μM 3×/wk/5 wk

QQLEEDLKGYLDWITQAE [AID-TAT]
cardiac Ψm and mitochondrial metabolic activity (flavoprotein oxidation) following BayK(−) ([1]; myocytes from cTnI-G203S mice with established cardiomyopathy treated 10 μM 3×/wk/5 wk from 30 wk): does not restore cardiac Ψm or mitochondrial metabolic activity to wt levels
increase in Ψm (JC-1) following BayK(−) ([1]; myocytes from precardiomyopathic cTnI-G203S mice treated 10 μM i.p. 3×/wk/5 wk from 20 wk): reduced this response to a level comparable to that observed in wt myocytes
inactivation rate of the cardiac ICa-L [2]: slows the inactivation rate
body weight over the course of treatment (wt and cTnI-G203S mice; 15 doses, % of day 1 BW): no significant reduction
kidney toxicity: serum urea and creatinine (wt and cTnI-G203S mice; [4]): No significant alterations
liver toxicity: serum ALT and AST (wt and cTnI-G203S mice; [4]): No significant alterations
F-actin organization [3]: F-actin organization comparable to wt myocytes
